Key:
Format in all cases: in vivo
[1] = tested on: Early Blight (Alternaria solani); assay: Evaluation of fungicide in the treatment of Early Blight on tomatoes; details: inoculated tomato plants; Chlorothalonil 2.5 pt/ac, no adjuvant; rated after one week
Description: This example evaluated the effectiveness of the fungicide chlorothalonil for the control of Early Blight on tomatoes. The fungicide was mixed with water in a spray tank at the listed rate treatment (A), or with a permeabilizer (B) and the degree of control of the Early Blight was evaluated. The tomato plants were inoculated with the fungi. The ratings were made after one week on the per cent leaves infected with Alternaria and also the number with severe damage—necrosis.

[2] = tested on: Bacterial Leaf Spot (Xanthomonas campestris); assay: Effectiveness of a bactericide on bacterial leaf spot on tomatoes; details: inoculated tomato plants; Copper 2#/acre, no adjuvant; rated after two weeks
Description: This example evaluated the effectiveness of the bactericide copper hydroxide for the control of bacterial leaf spot on tomatoes. The tomato plants were inoculated with the bacteria. The bactericide was mixed with water in a spray tank at the listed rate treatment (A), or with a permeabilizer (B) and the degree of control of the leaf spot was evaluated. The ratings were made after two weeks on the per cent leaves infected.

[3] = tested on: fireblight on Southern Crepe Myrtle; assay: Effectiveness of bactericide streptomycin at controlling fireblight; details: infected plants sprayed until wet; rated after two days; adjuvant (B) at 500:1 dilution
Description: This example evaluated the effectiveness of the bactericide streptomycin for the control of fireblight on Southern Crepe Myrtle. The bactericide was mixed with water in a spray tank at the listed rate treatment (A), or with a permeabilizer (B). The infected plants were treated with the bactericide by spraying until wet and the degree of control of the fireblight was evaluated. The ratings were made after two days on the rate required for control.

N#Cc1c(Cl)c(Cl)c(Cl)c(C#N)c1Cl [Chlorothalonil, chlorothalonil]
Infected Leaflets [1]: 60%
Infected Leaves [1]: 42%
Leaves with >50% Necrosis [1]: 42%

[Cu+2].[OH-].[OH-] [Copper, copper hydroxide]
% Leaves Infected [2]: 63%

[H]/N=C(/N)N[C@H]1[C@H](O)[C@@H](O)[C@H](O[C@@H]2O[C@@H](C)[C@](O)(C=O)[C@H]2O[C@@H]2O[C@@H](CO)[C@H](O)[C@@H](O)[C@@H]2NC)[C@@H](N/C(N)=N\[H])[C@@H]1O [Streptomycin, streptomycin]
Level of Control (rate required for control) [3]: 60 ppm
